What was measured:
Phytophthora infestans = type: in vivo; settings: 125 ppm, 200 L/10 a spray on tomato (5 leaf stage), inoculated next day; diseased area rates of third to fifth true leaves after 3 days in green house, graded by Table 5
Pyricularia oryzae = type: in vivo; settings: 200 ppm spray on rice (Koshihikari, 3 leaf stage), inoculated next day; lesion numbers on third leaves after 7 days in green house, graded by Table 5
[1] = test system: Colletotrichum lagenarium; settings: 200 ppm spray on cucumber (3 leaf stage), inoculated next day; lesion numbers on first and second leaves after 7 days in green house, graded by Table 5

Row | SMILES | Evaluation (effect for tomato late blight) (Phytophthora infestans) | Evaluation (effect for rice blast) (Pyricularia oryzae) | Evaluation (effect for cucumber anthracnose) [1]
1 | COc1ccc(C(=O)NCc2cc(CN3Cc4ccccc4C3)no2)cc1 | 1 (21˜41) | – | –
2 | O=C(Cc1ccccc1)NCc1cc(CCl)no1 [I-67, N-[(3-chloromethyl-5-isoxazolyl)methyl]phenylacetamide] | 2 (11˜20) | – | –
3 | O=C(NCc1cc(CCl)no1)C1CCCCC1 [III-233, N-[(3-chloromethyl-5-isoxazolyl)methyl]cyclohexanecarboxamide] | 2 (11˜20) | – | –
4 | O=C(NCc1cc(CCl)no1)c1ccc(Br)cc1 [III-260, N-[(3-chloromethyl-5-isoxazolyl)methyl]-4-bromobenzamide] | 3 (6˜10) | – | –
5 | O=C(NCc1cc(CCl)no1)c1ccc(C(F)(F)F)cc1 [III-261, N-[(3-chloromethyl-5-isoxazolyl)methyl]-4-trifluoromethylbenzamide] | 2 (11˜20) | – | –
6 | COc1ccc(C(=O)NCc2cc(COc3ccc(-n4cncn4)cc3)no2)cc1 [IV-73] | – | 2 (11˜20) | 3 (6˜10)
7 | COc1ccc(C(=O)NCc2cc(CON=Cc3ccccc3)no2)cc1 [IV-74, {3-[(4-methoxyphenyl)carbonylaminomethyl]-5-isoxazolyl]methoxyiminobenzyl] | – | 4 (1˜5) | 3 (6˜10)
8 | CO/N=C/c1ccc(OCc2cc(CNC(=O)c3ccc(OC)cc3)on2)cc1 [IV-75] | – | 2 (11˜20) | 3 (6˜10)
9 | COc1ccc(C(=O)NCc2cc(COc3c(C)cccc3C)no2)cc1 [IV-80, N-{[3-(2,6-dimethylphenyl)oxymethyl-5-isoxazolyl]methyl}-4-methoxybenzamide] | – | 4 (1˜5) | 4 (1˜5)
10 | COc1ccc(C(=O)NCc2cc(C(=O)Nc3ccccc3)no2)cc1 [IV-84, N-[(3-phenylaminocarbonyl-5-isoxazolyl)methyl]-4-methoxybenzamide] | – | 5 (0) | 5 (0)
11 | COc1ccc(C(=O)NCc2cc(COc3c(F)cccc3F)no2)cc1 [IV-86, N-{[3-(2,6-difluorophenyl)oxymethyl-5-isoxazolyl]methyl}-4-methoxybenzamide] | – | 5 (0) | 5 (0)
12 | COc1ccc(C(=O)NCc2cc(COc3ccc(C(C)=O)cc3)no2)cc1 [IV-87, N-{[3-(4-acetylphenyl)oxymethyl-5-isoxazolyl]methyl}-4-methoxybenzamide] | – | 5 (0) | 4 (1˜5)
13 | CNC(=O)c1ccc(OCc2cc(CNC(=O)c3ccc(OC)cc3)on2)cc1 [IV-88, N-{[3-(4-methylaminocarbonylphenyl)oxymethyl-5-isoxazolyl]methyl}-4-methoxybenzamide] | – | 3 (6˜10) | 3 (6˜10)
14 | COc1ccc(C(=O)NCc2cc(/C=C/c3ccco3)no2)cc1 [IV-89, N-{[3-(2-(2-furyl)ethenyl)-5-isoxazolyl]methyl}-4-methoxybenzamide] | – | 5 (0) | 5 (0)
15 | COc1ccc(C(=O)NCc2cc(COc3ccncc3)no2)cc1 [IV-90, N-{[3-(4-pyridyl)oxymethyl-5-isoxazolyl]methyl}-4-methoxybenzamide] | – | 3 (6˜10) | 3 (6˜10)
16 | COc1ccc(C(=O)NCc2cc(COc3ccccn3)no2)cc1 [IV-92, N-{[3-(2-pyridyl)oxymethyl-5-isoxazolyl]methyl}-4-methoxybenzamide] | – | 4 (1˜5) | 3 (6˜10)
17 | COc1ccc(C(=O)NCc2cc(C(=O)Nc3ccc(OC(F)F)cc3)no2)cc1 [IV-93, N-{[3-(4-difluoromethyloxyphenyl)aminocarbonyl-5-isoxazolyl]methyl}-4-methoxybenzamide] | – | 4 (1˜5) | 3 (6˜10)
18 | COc1ccc(NC(=O)c2cc(CNC(=O)c3ccc(OC)cc3)on2)cc1 [IV-94, N-{[3-(4-methoxyphenyl)aminocarbonyl-5-isoxazolyl]methyl}-4-methoxybenzamide] | – | 2 (11˜20) | 3 (6˜10)
19 | COc1ccc(C(=O)NCc2cc(C(=O)Nc3ccc(F)cc3)no2)cc1 [IV-95, N-{[3-(4-fluorophenyl)aminocarbonyl-5-isoxazolyl]methyl}-4-methoxybenzamide] | – | 4 (1˜5) | 4 (1˜5)

Row | SMILES | Evaluation (effect for tomato late blight) (Phytophthora infestans) | Evaluation (effect for rice blast) (Pyricularia oryzae) | Evaluation (effect for cucumber anthracnose) [1]
20 | COc1ccc(C(=O)NCc2cc(C(=O)Nc3ccccc3Cl)no2)cc1 [IV-96, N-{[3-(2-chlorophenyl)aminocarbonyl-5-isoxazolyl]methyl}-4-methoxybenzamide] | – | 4 (1˜5) | 4 (1˜5)
21 | COc1ccc(C(=O)NCc2cc(C(=O)Nc3ccc(C#N)cc3)no2)cc1 [IV-97, N-{[3-(4-cyanophenyl)aminocarbonyl-5-isoxazolyl]methyl}-4-methoxybenzamide] | – | 5 (0) | 5 (0)
22 | O=C(/C=C/c1ccccc1)NCc1cc(COc2ccccc2)no1 [IV-99, N-[(3-phenoxymethyl-5-isoxazolyl)methyl]-β-phenylacrylamide] | – | 4 (1˜5) | 4 (1˜5)
23 | COc1ccc(C(=O)NCc2cc(C(=O)Nc3cccc(Cl)c3)no2)cc1 [IV-105, N-{[3-(3-chlorophenyl)aminocarbonyl-5-isoxazolyl]methyl}-4-methoxybenzamide] | – | 3 (6˜10) | 3 (6˜10)
24 | COc1ccc(C(=O)NCc2cc(C(=O)Nc3ccc(F)cc3F)no2)cc1 [IV-107, N-{[3-(2,4-difluorophenyl)aminocarbonyl-5-isoxazolyl]methyl}-4-methoxybenzamide] | – | 5 (0) | 5 (0)
25 | COc1ccc(C(=O)NCc2cc(C(=O)Nc3ccc(C)cc3)no2)cc1 [IV-108, N-{[3-(4-tolyl)aminocarbonyl-5-isoxazolyl]methyl}-4-methoxybenzamide] | – | 2 (11˜20) | 2 (11˜20)
26 | COc1ccc(C(=O)NCc2cc(C#Cc3ccccc3)no2)cc1 [IV-110, N-[(3-phenylethynyl-5-isoxazolyl)methyl]-4-methoxybenzamide] | – | 5 (0) | 5 (0)
27 | COCc1cc(CNC(=O)c2ccc(OC)cc2)on1 [IV-111, N-[(3-methoxymethyl-5-isoxazolyl)methyl]-4-methoxybenzamide] | – | 3 (6˜10) | 3 (6˜10)
28 | COc1ccc(C(=O)NCc2cc(C(=O)Nc3ccccc3C#N)no2)cc1 [IV-112, N-{[3-(2-cyanophenyl)aminocarbonyl-5-isoxazolyl]methyl}-4-methoxybenzamide] | – | 2 (11˜20) | 3 (6˜10)
29 | O=C(NCc1cc(C(=O)Nc2ccccc2)no1)c1ccccc1 [IV-113, N-[(3-phenylaminocarbonyl-5-isoxazolyl)methyl]benzamide] | – | 4 (1˜5) | 4 (1˜5)
30 | O=C(NCc1cc(C(=O)Nc2ccccc2)no1)c1ccc(Cl)cc1 [IV-114, N-[(3-phenylaminocarbonyl-5-isoxazolyl)methyl]-4-chlorobenzamide] | – | 5 (0) | 5 (0)
31 | Cc1ccc(C(=O)NCc2cc(C(=O)Nc3ccccc3)no2)cc1 [IV-115, N-[(3-phenylaminocarbonyl-5-isoxazolyl)methyl]-4-methylbenzamide] | – | 5 (0) | 5 (0)
32 | Cc1cccc(C(=O)NCc2cc(C(=O)Nc3ccccc3)no2)c1 [IV-116, N-[(3-phenylaminocarbonyl-5-isoxazolyl)methyl]-3-methylbenzamide] | – | 5 (0) | 4 (1˜5)
33 | Cc1ccccc1C(=O)NCc1cc(C(=O)Nc2ccccc2)no1 [IV-117, N-[(3-phenylaminocarbonyl-5-isoxazolyl)methyl]-2-methylbenzamide] | – | 4 (1˜5) | 4 (1˜5)
34 | COc1ccc(C(=O)NCc2cc(C(=O)NC(C)(C)C)no2)cc1 [IV-119, N-[(3-tert-butylaminocarbonyl-5-isoxazolyl)methyl]-4-methoxybenzamide] | – | 2 (11˜20) | 3 (6˜10)
35 | COc1ccc(C(=O)NCc2cc(C(=O)NC3CCCC3)no2)cc1 [IV-120, N-[(3-cyclopentylaminocarbonyl-5-isoxazolyl)methyl]-4-methoxybenzamide] | – | 3 (6˜10) | 2 (11˜20)
36 | O=C(NCc1cc(COc2ccccc2)no1)C1CCCCC1 [IV-121, N-[(3-phenoxymethyl-5-isoxazolyl)methyl)cyclohexanecarboxamide] | – | 4 (1˜5) | 4 (1˜5)
37 | O=C(NCc1cc(COc2ccccc2)no1)c1cc(Cl)nc(Cl)c1 [IV-122, N-[(3-phenoxymethyl-5-isoxazolyl)methyl]-2,6-dichloropyridine-4-carboxamide] | – | 3 (6˜10) | 2 (11˜20)
38 | COc1ccc(C(=O)NCc2cc(/C=N/OCc3ccccc3)no2)cc1 [IV-124, N-[(3-benzyloxyiminomethyl-5-isoxazolyl)methyl]-4-methoxybenzamide] | – | 5 (0) | 5 (0)

Reference: US20050171358A1 (priority 2002, published 2005)
